19 compounds from patent US10550105B2 (Ribon Therapeutics Inc., priority 2018, dated 2020) can be followed below.

The target of the assay is PARP7 (Homo sapiens (Human), UniProt Q7Z3E1). In words: Enzymatic assay for inhibition of PARP7: TR-FRET displacement of biotinylated Probe A from the TIPARP active site. It is filed as binding. The settings on record: Table A-1. The method, boiled down: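 TR-FRET, ex 320 nm / em 615 and 665 nm. Signal ratio reflects complex formation.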
For orientation: TR-FRET usually uses a lanthanide donor and a delayed reading to cut background.

SMILES strings stand for the structures.

Chain of PARP7 (Q7Z3E1 whole entry): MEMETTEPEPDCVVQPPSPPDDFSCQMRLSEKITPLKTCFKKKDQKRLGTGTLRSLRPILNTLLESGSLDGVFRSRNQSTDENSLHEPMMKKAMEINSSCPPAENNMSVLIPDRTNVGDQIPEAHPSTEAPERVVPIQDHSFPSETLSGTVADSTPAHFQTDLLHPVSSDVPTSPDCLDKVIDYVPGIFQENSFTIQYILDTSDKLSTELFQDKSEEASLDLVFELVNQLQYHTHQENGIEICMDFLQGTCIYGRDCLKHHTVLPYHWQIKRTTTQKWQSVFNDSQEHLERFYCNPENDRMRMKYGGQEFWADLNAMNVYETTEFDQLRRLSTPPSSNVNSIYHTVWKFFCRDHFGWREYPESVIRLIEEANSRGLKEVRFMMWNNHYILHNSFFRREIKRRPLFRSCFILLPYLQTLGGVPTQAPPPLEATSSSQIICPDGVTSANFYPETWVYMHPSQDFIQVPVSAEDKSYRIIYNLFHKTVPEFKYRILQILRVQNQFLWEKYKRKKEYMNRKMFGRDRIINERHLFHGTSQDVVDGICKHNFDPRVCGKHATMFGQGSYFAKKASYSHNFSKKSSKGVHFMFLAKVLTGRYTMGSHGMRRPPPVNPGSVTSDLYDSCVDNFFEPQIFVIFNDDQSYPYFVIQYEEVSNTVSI

`N#Cc1ccc(N2CCN(C(=O)c3ccnc(OC[C@@H]4CCCN4c4cn[nH]c(=O)c4C(F)(F)F)n3)CC2)nc1` [Example 68, 6-[4-[(2-[[(2S)-1-[6-oxo-5-(trifluoromethyl)-1,6-dihydropyridazin-4-yl]pyrrolidin-2-yl]methoxy]pyrimidin-4-yl)carbonyl]piperazin-1-yl]pyridine-3-carbonitrile] registered an IC50 of under 100 nM.

The compound `N#Cc1ccc(N2CCN(C(=O)c3ccnc(OC[C@@H]4CCCN4c4cn[nH]c(=O)c4C(F)(F)F)c3)CC2)nc1` [Example 69, 6-[4-[(2-[[(2S)-1-[6-oxo-5-(trifluoromethyl)-1,6-dihydropyridazin-4-yl]pyrrolidin-2-yl]methoxy]pyridin-4-yl)carbonyl]piperazin-1-yl]pyridine-3-carbonitrile] gave an IC50 of under 100 nM.

For the compound `C[C@H]1C[C@@H](COc2cccc(C(=O)N3CCN(c4ccc(C#N)cn4)CC3)c2)N(c2cn[nH]c(=O)c2C(F)(F)F)C1` [Example 70, 6-[4-[(3-[[(2S,4S)-4-methyl-1-[6-oxo-5-(trifluoromethyl)-1,6-dihydropyridazin-4-yl]pyrrolidin-2-yl]methoxy]phenyl)carbonyl]piperazin-1-yl]pyridine-3-carbonitrile], the half-inhibitory concentration (IC50) is under 100 nM.

The compound `N#Cc1ccc(N2CCN(C(=O)c3cccc(OCC4COCCN4c4cn[nH]c(=O)c4C(F)(F)F)c3)CC2)nc1` (stereo not shown) [Example 71, 6-(4-[[3-([4-[6-oxo-5-(trifluoromethyl)-1,6-dihydropyridazin-4-yl]morpholin-3-yl]methoxy)phenyl]carbonyl]piperazin-1-yl)pyridine-3-carbonitrile] gave an IC50 of 100 to 1000 nM.

In turn, `N#Cc1ccc(N2CCN(C(=O)c3cc(OC[C@@H]4CCCN4c4cn[nH]c(=O)c4C(F)(F)F)ccn3)CC2)nc1` [Example 73, 6-[4-[(4-[[(2S)-1-[6-oxo-5-(trifluoromethyl)-1,6-dihydropyridazin-4-yl]pyrrolidin-2-yl]methoxy]pyridin-2-yl)carbonyl]piperazin-1-yl]pyridine-3-carbonitrile] showed an IC50 of under 100 nM.

In turn, `N#Cc1ccc(N2CCN(C(=O)c3cncc(OC[C@@H]4CCCN4c4cn[nH]c(=O)c4C(F)(F)F)n3)CC2)nc1` [Example 74, 6-[4-[(6-[[(2S)-1-[6-oxo-5-(trifluoromethyl)-1,6-dihydropyridazin-4-yl]pyrrolidin-2-yl]methoxy]pyrazin-2-yl)carbonyl]piperazin-1-yl]pyridine-3-carbonitrile] yielded an IC50 of under 100 nM.

`C[C@@H]1C[C@@H](COc2cccc(C(=O)N3CCN(c4ccc(C#N)cn4)CC3)c2)N(c2cn[nH]c(=O)c2C(F)(F)F)C1` [Example 75, 6-[4-[(3-[[(2S,4R)-4-methyl-1-[6-oxo-5-(trifluoromethyl)-1,6-dihydropyridazin-4-yl]pyrrolidin-2-yl]methoxy]phenyl)carbonyl]piperazin-1-yl]pyridine-3-carbonitrile] gave an IC50 of under 100 nM.

For `N#Cc1ccc(N2CCN(C(=O)COC[C@@H]3CCCN3c3cn[nH]c(=O)c3C(F)(F)F)CC2)nc1` [Example 76, 6-[4-(2-[[(2S)-1-[6-oxo-5-(trifluoromethyl)-1,6-dihydropyridazin-4-yl]pyrrolidin-2-yl]methoxy]acetyl)piperazin-1-yl]pyridine-3-carbonitrile], the IC50 is under 100 nM.

In the case of `N#Cc1ccc(N2CCN(C(=O)CCCOC[C@@H]3CCCN3c3cn[nH]c(=O)c3C(F)(F)F)CC2)nc1` [Example 77, 6-[4-(4-[[(2S)-1-[6-oxo-5-(trifluoromethyl)-1,6-dihydropyridazin-4-yl]pyrrolidin-2-yl]methoxy]butanoyl)piperazin-1-yl]pyridine-3-carbonitrile], the IC50 is under 100 nM.

As to `C[C@H]1C[C@@H](COCCC(=O)N2CCN(c3ccc(C#N)cn3)CC2)N(c2cn[nH]c(=O)c2C(F)(F)F)C1` [Example 78, 6-[4-(3-[[(2S,4S)-4-methyl-1-[6-oxo-5-(trifluoromethyl)-1,6-dihydropyridazin-4-yl]pyrrolidin-2-yl]methoxy]propanoyl)piperazin-1-yl]pyridine-3-carbonitrile], the half-maximal inhibitory concentration (IC50) was under 100 nM.

As to `N#Cc1ccc(N2CCN(C(=O)/C=C/COC[C@@H]3c4ccccc4CN3c3cn[nH]c(=O)c3C(F)(F)F)CC2)nc1` [Example 79 Isomer C, 6-[4-[(2E)-4-[[(1S)-2-[6-oxo-5-(trifluoromethyl)-1,6-dihydropyridazin-4-yl]-2,3-dihydro-1H-isoindol-1-yl]methoxy]but-2-enoyl]piperazin-1-yl]pyridine-3-carbonitrile], the IC50 is under 100 nM.

The compound `N#Cc1ccc(N2CCN(C(=O)/C=C/COC[C@H]3c4ccccc4CN3c3cn[nH]c(=O)c3C(F)(F)F)CC2)nc1` [Example 79 Isomer D, 6-[4-[(2E)-4-[[(1R)-2-[6-oxo-5-(trifluoromethyl)-1,6-dihydropyridazin-4-yl]-2,3-dihydro-1H-isoindol-1-yl]methoxy]but-2-enoyl]piperazin-1-yl]pyridine-3-carbonitrile] showed an IC50 of under 100 nM.

In the case of `O=C(COC[C@@H]1CCCN1c1cn[nH]c(=O)c1C(F)(F)F)NC1CCC(Oc2ccccn2)CC1` (stereo partly drawn) [Example 83, 2-[[(2S)-1-[6-oxo-5-(trifluoromethyl)-1,6-dihydropyridazin-4-yl]pyrrolidin-2-yl]methoxy]-N-[4-(pyridin-2-yloxy)cyclohexyl]acetamide], the IC50 lay in the range of 100 to 1000 nM.

On to `O=C(CCOC[C@@H]1CCCN1c1cn[nH]c(=O)c1C(F)(F)F)NC1CCC(Oc2ccccn2)CC1` (stereo partly drawn) [Example 84, 3-[[(2S)-1-[6-oxo-5-(trifluoromethyl)-1,6-dihydropyridazin-4-yl]pyrrolidin-2-yl]methoxy]-N-[4-(pyridin-2-yloxy)cyclohexyl]propanamide], for which the IC50 was 100 to 1000 nM.

For the compound `N#Cc1ccc(NCCC(=O)Nc2cccc(OC[C@@H]3CCCN3c3cn[nH]c(=O)c3C(F)(F)F)c2)nc1` [Example 85, 3-[(5-cyanopyridin-2-yl)amino]-N-(3-[[(2S)-1-[6-oxo-5-(trifluoromethyl)-1,6-dihydropyridazin-4-yl]pyrrolidin-2-yl]methoxy]phenyl)propanamide], the half-inhibitory concentration (IC50) is under 100 nM.

`C=CC(=O)Nc1cccc(OC[C@@H]2CCCN2c2cn[nH]c(=O)c2C(F)(F)F)c1` [Example 86, N-(3-[[(2S)-1-[6-oxo-5-(trifluoromethyl)-1,6-dihydropyridazin-4-yl]pyrrolidin-2-yl]methoxy]phenyl)prop-2-enamide] gave an IC50 of 100 to 1000 nM.

Turning to `N#Cc1ccc(NCCC(=O)Nc2cncc(OC[C@@H]3CCCN3c3cn[nH]c(=O)c3C(F)(F)F)c2)nc1` [Example 87, 3-[(5-cyanopyridin-2-yl)amino]-N-(5-[[(2S)-1-[6-oxo-5-(trifluoromethyl)-1,6-dihydropyridazin-4-yl]pyrrolidin-2-yl]methoxy]pyridin-3-yl)propanamide], the concentration for half-maximal inhibition (IC50) was under 100 nM.

The compound `N#Cc1ccc(N2CCN(C(=O)COCC[C@@H]3CCCN3c3cn[nH]c(=O)c3C(F)(F)F)CC2)nc1` [Example 88, (S)-6-(4-(2-(2-(1-(6-oxo-5-(trifluoromethyl)-1,6-dihydropyridazin-4-yl)pyrrolidin-2-yl)ethoxy)acetyl)piperazin-1-yl)nicotinonitrile] came in with an IC50 of under 100 nM.

As for `N#Cc1ccc(N2CCN(C(=O)CNCC[C@@H]3CCCN3c3cn[nH]c(=O)c3C(F)(F)F)CC2)nc1` [Example 89, 6-[4-[2-([2-[(2S)-1-[6-oxo-5-(trifluoromethyl)-1,6-dihydropyridazin-4-yl]pyrrolidin-2-yl]ethyl]amino)acetyl]piperazin-1-yl]pyridine-3-carbonitrile], the half-inhibitory concentration (IC50) is under 100 nM.

One may read the IC50 as the concentration at which inhibition is half-maximal. Lower therefore signals greater potency in that assay.
